What was measured:
Assay type in all cases: biochemical
Conditions in all cases: result in words
[1] = biological target: CypH (Homo sapiens, UniProt O43447); experiment: chymotrypsin coupled PPIase assay, CypH inhibition
Experimental: (§1) Following the synthesis of the indicated library members, in vitro inhibition (IC50) assays of these hits were conducted to obtain IC50 inhibitory data. For the IC50 assays, a chymotrypsin coupled PPIase assay using Suc-AAPF-AMC as the peptide substrate was used, whereby isomerization of a peptide substrate Suc-AAPF-AMC from the cis to trans conformation allowed for proteolysis via excess a-chymotrypsin, releasing the C-terminal coumarin fluorophore. […] Other non-inhibitor library members were also checked for binding via SPR, but produced the same profile as the prolyl isomerase assay.
(§2) Subsequently, to determine if the compounds could both access the S2 pocket and display CypD specificity, JOMBtrans and compound 49 were screened against the 10 other cyclophilins with reported prolyl isomerase activity. […] Co-crystal structures of JOMBtrans and 49 were solved with CypD. […] Three further H-bonds with the macrocycle's backbone and CypD were observed along with a cation-n interaction. […] The benzyl group on the piperidine ring altered the conformation of the macrocycle to open up two new hydrogen bonding interactions with CypD. […] This improvement in specificity compared to JOMBtrans signified that more CypD specific compounds can be garnered by derivatization into the S2 pocket.

[2] = biological target: T1, PPWD1 (Homo sapiens, UniProt Q96BP3); experiment: chymotrypsin coupled PPIase assay, PPWD1 inhibition
T1 sequence (Q96BP3 1-646): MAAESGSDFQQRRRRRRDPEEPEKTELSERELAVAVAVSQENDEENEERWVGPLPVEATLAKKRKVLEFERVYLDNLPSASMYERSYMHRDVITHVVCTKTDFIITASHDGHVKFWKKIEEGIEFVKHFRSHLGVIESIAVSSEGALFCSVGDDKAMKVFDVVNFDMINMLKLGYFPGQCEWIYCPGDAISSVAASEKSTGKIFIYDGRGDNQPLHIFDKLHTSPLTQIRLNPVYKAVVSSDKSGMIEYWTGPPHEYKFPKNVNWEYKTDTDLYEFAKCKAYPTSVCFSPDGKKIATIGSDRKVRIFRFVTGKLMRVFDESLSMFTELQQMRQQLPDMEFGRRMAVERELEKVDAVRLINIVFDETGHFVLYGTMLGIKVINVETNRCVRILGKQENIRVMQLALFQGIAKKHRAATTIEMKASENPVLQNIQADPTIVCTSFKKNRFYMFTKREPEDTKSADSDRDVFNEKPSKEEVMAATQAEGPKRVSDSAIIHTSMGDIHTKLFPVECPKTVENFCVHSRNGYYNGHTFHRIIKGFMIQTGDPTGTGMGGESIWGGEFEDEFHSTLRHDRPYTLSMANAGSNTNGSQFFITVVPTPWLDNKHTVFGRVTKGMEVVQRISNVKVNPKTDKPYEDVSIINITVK
Experimental: as §1, §2

[3] = test system: 10 other cyclophilins with reported prolyl isomerase activity; experiment: cyclophilin specificity screen: CypD against the other cyclophilins
Text: The selectivity of a compound described herein in inhibiting the activity of a first cyclophilin (e.g., CypD) over a second cyclophilin may be measured by the quotient of the IC50 value of the compound in inhibiting the activity of the second cyclophilin over the IC50 value of the compound in inhibiting the activity of the first cyclophilin. The selectivity of a compound described herein in modulating the activity of a first cyclophilin over a second cyclophilin may also be measured by the quotient of the Kd value of an adduct of the compound and the second cyclophilin over the Kd value of an adduct of the compound and the first cyclophilin (e.g., CypD). […] In certain embodiments, selectivity for inhibiting a first cyclophilin over other cyclophilins is measured by Surface Plasmon Resonance (SPR) assays as disclosed in the Examples.
Following the synthesis of the indicated library members, in vitro inhibition (IC50) assays of these hits were conducted to obtain IC50 inhibitory data. For the IC50 assays, a chymotrypsin coupled PPIase assay using Suc-AAPF-AMC as the peptide substrate was used, whereby isomerization of a peptide substrate Suc-AAPF-AMC from the cis to trans conformation allowed for proteolysis via excess a-chymotrypsin, releasing the C-terminal coumarin fluorophore.
Subsequently, to determine if the compounds could both access the S2 pocket and display CypD specificity, JOMBtrans and compound 49 were screened against the 10 other cyclophilins with reported prolyl isomerase activity. […] Co-crystal structures of JOMBtrans and 49 were solved with CypD.

CypH, sequence (O43447 whole entry): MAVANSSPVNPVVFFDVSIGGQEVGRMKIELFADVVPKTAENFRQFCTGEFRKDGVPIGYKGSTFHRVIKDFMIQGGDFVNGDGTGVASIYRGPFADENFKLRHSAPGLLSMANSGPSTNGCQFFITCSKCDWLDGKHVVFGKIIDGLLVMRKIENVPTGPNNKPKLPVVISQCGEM

specificity / selectivity profile for CypD (in words) [3]: improvement in specificity for CypD
Structure (SMILES): NCCOCCNC(=O)[C@@H]1CCNC(=O)/C=C/C(=O)N2CCC[C@H](C2)C(=O)N[C@@H](Cc2ccc(C(=O)c3ccccc3)cc2)C(=O)NCc2ccccc2CC(=O)N1 [compound 27]
inhibition of CypH [1]: Almost complete ablation of inhibition profiles
inhibition of PPWD1 [2]: Almost complete ablation of inhibition profiles
